Source: ChEMBL document CHEMBL2440076, “New triarylpyrazoles as broad-spectrum anticancer agents: design, synthesis, and biological evaluation” (Eur J Med Chem, 2013)
pIC50: −log10 of the molar value.

Assays:
[1] = tested on: T47D; experiment: Growth inhibition of human T47D cells assessed as cell growth at 10 uM after 48 hrs by sulforhodamine B assay; format: functional; details: read-out: Activity
[2] = tested on: MCF7; experiment: Growth inhibition of human MCF7 cells assessed as cell growth at 10 uM after 48 hrs by sulforhodamine B assay; format: functional; details: MCF7, 48 h, read-out: Activity
[3] = tested on: MDA-MB-231; experiment: Growth inhibition of human MDA-MB-231 cells assessed as cell growth at 10 uM after 48 hrs by sulforhodamine B assay; format: functional; details: MDA-MB-231, 48 h, read-out: Activity
[4] = tested on: DU-145; experiment: Growth inhibition of human DU145 cells assessed as cell growth at 10 uM after 48 hrs by sulforhodamine B assay; format: functional; details: DU-145, 48 h, read-out: Activity
[5] = tested on: CAKI-1; experiment: Growth inhibition of human CAKI-1 cells assessed as cell growth at 10 uM after 48 hrs by sulforhodamine B assay; format: functional; details: CAKI-1, 48 h, read-out: Activity
[6] = tested on: SW-620; experiment: Growth inhibition of human SW620 cells after 48 hrs by sulforhodamine B assay; format: functional; details: SW-620, 48 h
[7] = tested on: KM12; experiment: Growth inhibition of human KM12 cells after 48 hrs by sulforhodamine B assay; format: functional, cell-based; details: KM12, 48 h
[8] = Growth inhibition of human HCC2998 cells after 48 hrs by sulforhodamine B assay; format: functional; details: HCC 2998, 48 h
[9] = tested on: NCI-H226; experiment: Growth inhibition of human NCI-H226 cells after 48 hrs by sulforhodamine B assay; format: functional; details: NCI-H226, 48 h
[10] = tested on: SR; experiment: Growth inhibition of human SR cells after 48 hrs by sulforhodamine B assay; format: functional
[11] = tested on: RPMI-8226; experiment: Growth inhibition of human RPMI8226 cells after 48 hrs by sulforhodamine B assay; format: functional, cell-based; details: RPMI-8226, 48 h
[12] = tested on: CCRF-CEM; experiment: Growth inhibition of human CCRF-CEM cells after 48 hrs by sulforhodamine B assay; format: functional
[13] = tested on: ACHN; experiment: Growth inhibition of human ACHN cells assessed as cell growth at 10 uM after 48 hrs by sulforhodamine B assay; format: functional; details: read-out: Activity
[14] = tested on: A498; experiment: Growth inhibition of human A498 cells assessed as cell growth at 10 uM after 48 hrs by sulforhodamine B assay; format: functional; details: A498, 48 h, read-out: Activity
[15] = tested on: SK-OV-3; experiment: Growth inhibition of human SKOV3 cells assessed as cell growth at 10 uM after 48 hrs by sulforhodamine B assay; format: functional; details: SK-OV-3, 48 h, read-out: Activity
[16] = Growth inhibition of human NCI-ADR-RES cells assessed as cell growth at 10 uM after 48 hrs by sulforhodamine B assay; format: functional; details: read-out: Activity
[17] = tested on: IGROV-1; experiment: Growth inhibition of human IGROV1 cells assessed as cell growth at 10 uM after 48 hrs by sulforhodamine B assay; format: functional; details: IGROV-1, 48 h, read-out: Activity
[18] = tested on: Malme-3M; experiment: Growth inhibition of human MALME-3M cells assessed as cell growth at 10 uM after 48 hrs by sulforhodamine B assay; format: functional; details: read-out: Activity
[19] = tested on: U-251; experiment: Growth inhibition of human U251 cells assessed as cell growth at 10 uM after 48 hrs by sulforhodamine B assay; format: functional; details: U-251, 48 h, read-out: Activity
[20] = tested on: HCT-116; experiment: Growth inhibition of human HCT116 cells assessed as cell growth at 10 uM after 48 hrs by sulforhodamine B assay; format: functional; details: HCT-116, 48 h, read-out: Activity
[21] = tested on: COLO 205; experiment: Growth inhibition of human COLO205 cells assessed as cell growth at 10 uM after 48 hrs by sulforhodamine B assay; format: functional; details: COLO 205, 48 h, read-out: Activity
[22] = tested on: NCI-H226; experiment: Growth inhibition of human NCI-H226 cells assessed as cell growth at 10 uM after 48 hrs by sulforhodamine B assay; format: functional; details: NCI-H226, 48 h, read-out: Activity
[23] = tested on: UO-31; experiment: Growth inhibition of human UO31 cells after 48 hrs by sulforhodamine B assay; format: functional; details: UO-31, 48 h
[24] = tested on: TK-10; experiment: Growth inhibition of human TK10 cells after 48 hrs by sulforhodamine B assay; format: functional; details: TK-10, 48 h
[25] = tested on: SN12C; experiment: Growth inhibition of human SN12C cells after 48 hrs by sulforhodamine B assay; format: functional
[26] = tested on: A498; experiment: Growth inhibition of human A498 cells after 48 hrs by sulforhodamine B assay; format: functional, cell-based; details: A498, 48 h
[27] = tested on: OVCAR-4; experiment: Growth inhibition of human OVCAR4 cells after 48 hrs by sulforhodamine B assay; format: functional; details: OVCAR-4, 48 h
[28] = tested on: UACC-62; experiment: Growth inhibition of human UACC62 cells after 48 hrs by sulforhodamine B assay; format: functional; details: UACC-62, 48 h
[29] = tested on: UACC-257; experiment: Growth inhibition of human UACC257 cells after 48 hrs by sulforhodamine B assay; format: functional; details: UACC-257, 48 h
[30] = tested on: MDA-MB-435; experiment: Growth inhibition of human MDA-MB-435 cells after 48 hrs by sulforhodamine B assay; format: functional, cell-based; details: MDA-MB-435, 48 h
[31] = tested on: M14; experiment: Growth inhibition of human M14 cells after 48 hrs by sulforhodamine B assay; format: functional; details: M14, 48 h
[32] = tested on: SNB-75; experiment: Growth inhibition of human SNB75 cells after 48 hrs by sulforhodamine B assay; format: functional; details: SNB-75, 48 h
[33] = tested on: SF-268; experiment: Growth inhibition of human SF268 cells after 48 hrs by sulforhodamine B assay; format: functional; details: SF-268, 48 h
[34] = tested on: K562; experiment: Growth inhibition of human K562 cells assessed as cell growth at 10 uM after 48 hrs by sulforhodamine B assay; format: functional; details: K562, 48 h, read-out: Activity
[35] = tested on: CCRF-CEM; experiment: Growth inhibition of human CCRF-CEM cells assessed as cell growth at 10 uM after 48 hrs by sulforhodamine B assay; format: functional; details: read-out: Activity
[36] = read-out: LC50 (the source's name)

Which growth at 10 µM [1] does the source give for O=C(Nc1cccc(-n2cc(-c3ccncc3)c(-c3ccc(Cl)c(O)c3)n2)c1)Nc1cccc(C(F)(F)F)c1 here?
The growth at 10 µM was 18.5%.

And the growth at 10 µM [2]?
The growth at 10 µM was 10.3%.

And the growth at 10 µM [3]?
Its growth at 10 µM is 21.3%.

And the growth at 10 µM [4]?
Its growth at 10 µM is 23.1%.

And the growth at 10 µM [5]?
The growth at 10 µM was 30.1%.

What about the GI50 [6] of the same compound?
The GI50 was 3.83 µM.

What about the TGI [6] of the same compound?
The TGI was over 32.5 µM.

And the CC50 [6, 36]?
Its CC50 is over 32.5 µM.

And the GI50 [7]?
Its GI50 is 1.33 µM.

What about the TGI [7] of the same compound?
The TGI was over 32.5 µM.

What about the CC50 [7, 36] of the same compound?
Its CC50 is over 32.5 µM.

What about the GI50 [8] of the same compound?
Its GI50 is 7.26 µM.

And the TGI [8]?
The TGI was over 32.5 µM.

And the CC50 [8, 36]?
Its CC50 is over 32.5 µM.

And the GI50 [9]?
Its GI50 is 7.35 µM.

What about the TGI [9] of the same compound?
The TGI was over 32.5 µM.

What about the CC50 [9, 36] of the same compound?
The CC50 was over 32.5 µM.

What about the GI50 [10] of the same compound?
The GI50 was 1.82 µM.

What about the TGI [10] of the same compound?
Its TGI is 20 µM.

And the CC50 [10, 36]?
Its CC50 is over 32.5 µM.

And the GI50 [11]?
The GI50 was 1.34 µM.

What about the pIC50 [11] of the same compound?
The pIC50 was 5.87.

And the TGI [11]?
Its TGI is over 32.5 µM.

And the CC50 [11, 36]?
Its CC50 is over 32.5 µM.

And the GI50 [12]?
The GI50 was 1.4 µM.

What about the LC50 [12] of the same compound?
Its LC50 is over 32.5 µM.

What about the TGI [12] of the same compound?
The TGI was over 32.5 µM.

And the growth at 10 µM [13]?
The growth at 10 µM was 11.2%.

What about the growth at 10 µM [14] of the same compound?
Its growth at 10 µM is 17.7%.

What about the growth at 10 µM [15] of the same compound?
Its growth at 10 µM is 21.2%.

And the growth at 10 µM [16]?
Its growth at 10 µM is 24.9%.

What about the growth at 10 µM [17] of the same compound?
The growth at 10 µM was 28.6%.

What about the growth at 10 µM [18] of the same compound?
Its growth at 10 µM is 1.16%.

And the growth at 10 µM [19]?
The growth at 10 µM was 15.8%.

And the growth at 10 µM [20]?
Its growth at 10 µM is 9.75%.

What about the growth at 10 µM [21] of the same compound?
Its growth at 10 µM is 94.2%.

What about the growth at 10 µM [22] of the same compound?
Its growth at 10 µM is 35.1%.

And the GI50 [23]?
The GI50 was 1.86 µM.

And the TGI [23]?
The TGI was over 32.5 µM.

What about the CC50 [23, 36] of the same compound?
Its CC50 is over 32.5 µM.

What about the GI50 [24] of the same compound?
Its GI50 is 2.12 µM.

What about the TGI [24] of the same compound?
Its TGI is over 32.5 µM.

And the CC50 [24, 36]?
Its CC50 is over 32.5 µM.

And the GI50 [25]?
Its GI50 is 2.01 µM.

And the TGI [25]?
The TGI was over 32.5 µM.

And the CC50 [25, 36]?
The CC50 was over 32.5 µM.

And the GI50 [26]?
The GI50 was 2.24 µM.

And the pIC50 [26]?
Its pIC50 is 5.65.

And the TGI [26]?
Its TGI is over 32.5 µM.

And the CC50 [26, 36]?
Its CC50 is over 32.5 µM.

What about the GI50 [27] of the same compound?
Its GI50 is 3.18 µM.

And the LC50 (concentration killing 50% of cells) [27]?
The LC50 (concentration killing 50% of cells) was over 32.5 µM.

And the TGI [27]?
Its TGI is over 32.5 µM.

And the GI50 [28]?
The GI50 was 1.65 µM.

And the LC50 (50% lethal concentration) [28]?
The LC50 (50% lethal concentration) was 21.9 µM.

And the TGI [28]?
The TGI was 6.91 µM.

And the GI50 [29]?
The GI50 was 4.34 µM.

What about the TGI [29] of the same compound?
Its TGI is 19.1 µM.

And the CC50 [29, 36]?
The CC50 was over 32.5 µM.

What about the GI50 [30] of the same compound?
Its GI50 is 1.49 µM.

What about the pIC50 [30] of the same compound?
Its pIC50 is 5.83.

And the TGI [30]?
The TGI was 12.6 µM.

What about the CC50 [30, 36] of the same compound?
Its CC50 is over 32.5 µM.

And the GI50 [31]?
Its GI50 is 1.4 µM.

And the LC50 (concentration killing 50% of cells) [31]?
Its LC50 (concentration killing 50% of cells) is over 32.5 µM.

And the TGI [31]?
Its TGI is 10.8 µM.

What about the GI50 [32] of the same compound?
The GI50 was 3.65 µM.

And the LC50 (lethal concentration, 50% net cell kill) [32]?
The LC50 (lethal concentration, 50% net cell kill) was over 32.5 µM.

What about the TGI [32] of the same compound?
Its TGI is over 32.5 µM.

What about the GI50 [33] of the same compound?
Its GI50 is 1.95 µM.

And the TGI [33]?
The TGI was 15.8 µM.

And the CC50 [33, 36]?
Its CC50 is over 32.5 µM.

What about the growth at 10 µM [34] of the same compound?
The growth at 10 µM was 13.4%.

And the growth at 10 µM [35]?
Its growth at 10 µM is 10.6%.
